In patent US9192639B1, “Convolvulus extract for treatment of peptic ulcer and helicobacter pylori infection” (KING SAUD UNIVERSITY, priority 2014, dated 2015):

Tests used:
[1] = system: H. pylori clinical isolates and reference strain ATCC 43504; test: Disk diffusion test, anti-Helicobacter pylori activity; assay type: cell-based; parameters: key to Inhibition Zone: *R: Resistant
[2] = system: absolute ethanol-induced ulcer in Wistar rats; test: Anti-ulcerogenic activity, absolute ethanol-induced ulcer model; assay type: in vivo; settings: oral 100 mg/kg; for % Protection: % protection of control ulcer, 100 mg/kg
Protocol: Evaluation of the anti-ulcerogenic activity was carried out using an absolute ethanol-induced ulcer model according to published methods. About 30 Wistar rats were divided into 5 groups, each of 6 rats. Group 1 received the vehicle and served as control group. Group 2 received ranitidine (100 mg/kg) and served as a standard group. […] Rats of all groups were fasted for 24 hours, and then all medications were administered orally. […] The stomachs were rapidly removed, opened along their greater curvature, and gently rinsed under running tap water. The number of lesions in the glandular part of the stomach was measured under an illuminated magnifying microscope (10×). Long lesions were counted and their lengths were measured. Petechial lesions were counted, and then each five petechial lesions were taken as 1 mm of ulcer. The mucosal lesions were quantified by the scoring system (0-5), where 0=no damage; 1=Local edema and inflammation without ulcers; 2=One ulcer without inflammation; 3=one to two ulcers with inflammation & lesion diameter <1 cm; 4=More than two ulcers with lesion diameter 1-2 cm; 5=Sever ulceration with lesion diameter >2 cm. To calculate the ulcer index (mm), the sum of the total length of long ulcers and petechial lesions in each group of rats was divided by its number. The curative ratio was determined according to the formula: % Protection of control ulcer=Control UI−Test UI/Control UI×100.

CC1(C)S[C@@H]2[C@H](NC(=O)[C@H](N)c3ccc(O)cc3)C(=O)N2[C@H]1C(=O)O [Amoxicillin]
Inhibition Zone ([1]; H. pylori strain ATCC 43504, disk 30 μg): 30 mm
Inhibition Zone ([1]; H. pylori strain KA01, disk 30 μg): R*
Inhibition Zone ([1]; H. pylori strain KA01, disk 30 μg, listed as amoxicillin): resistant
Inhibition Zone ([1]; H. pylori strain KA02, disk 30 μg): 20 mm
Inhibition Zone ([1]; H. pylori strain KA03, disk 30 μg): 21 mm
Inhibition Zone ([1]; H. pylori strain KA04, disk 30 μg): 20 mm
Inhibition Zone ([1]; H. pylori strain KA05, disk 30 μg): 22 mm
Inhibition Zone ([1]; H. pylori strain KA07, disk 30 μg): 25 mm
Inhibition Zone ([1]; H. pylori strain KAO6, disk 30 μg): 23 mm
Susceptibility of H. pylori isolates by disc diffusion ([1]; all isolates with the exception of isolate KA01): sensitive

CC[C@H]1OC(=O)[C@H](C)[C@@H](O[C@H]2C[C@@](C)(OC)[C@@H](O)[C@H](C)O2)[C@H](C)[C@@H](O[C@@H]2O[C@H](C)C[C@H](N(C)C)[C@H]2O)[C@](C)(O)C[C@@H](C)C(=O)[C@H](C)[C@@H](O)[C@]1(C)O [Erythromycin]
Inhibition Zone ([1]; H. pylori strain ATCC 43504, disk 15 μg): 28 mm
Inhibition Zone ([1]; H. pylori strain KA01, disk 15 μg): 19 mm
Inhibition Zone ([1]; H. pylori strain KA02, disk 15 μg): 23 mm
Inhibition Zone ([1]; H. pylori strain KA03, disk 15 μg): 22 mm
Inhibition Zone ([1]; H. pylori strain KA04, disk 15 μg): 22 mm
Inhibition Zone ([1]; H. pylori strain KA05, disk 15 μg): 20 mm
Inhibition Zone ([1]; H. pylori strain KA07, disk 15 μg): 23 mm
Inhibition Zone ([1]; H. pylori strain KAO6, disk 15 μg): 24 mm
Susceptibility of H. pylori isolates by disc diffusion ([1]; all of the isolates of H. pylori): sensitive

CNC(=C[N+](=O)[O-])NCCSCc1ccc(CN(C)C)o1 [Ranitidine]
% Protection [2]: 46.2%
% Protection ([2]; listed as ranitidine): about 46.2%
Score ([2]; mucosal lesion scoring system 0-5): 2.2
